Molecule `CC(=O)NCC[C@@H]1CCc2ccc3c(c21)CCO3` has a melting point of 118 to 120 °C.
